Reference: article PMC5855688, “BC-Box Motif-Mediated Neuronal Differentiation of Somatic Stem Cells” (International Journal of Molecular Sciences, 2018)
Entries after “also recorded” stand apart in the source; their conditions may differ.

How the values were obtained:
[1] = test system: skin-derived precursors (SKPs); assay: Neurite outgrowth / morphological evaluation of neuronal differentiation; format: cell-based, rat (neonate Wistar)
Method: (§1) Rodent skin-derived precursor cells (SKPs), which can differentiate to neurons, were used. SKPs were previously isolated from the back dermis of neonate Wistar rats by the authors. These cells were cultured in growth medium composed of DMEM/F12 (1:1; Gibco, Grand Island, NY, USA) containing 2% B27 supplement (Gibco), 20 ng/mL epidermal growth factor (EGF; Upstate Biotechnology, Lake Placid, NY, USA), and 40 ng/mL bFGF (PeproTech EC Ltd., Rocky Hill, NJ, USA) in a humidified incubator at 37 °C with 5% CO2. The floating clusters of cultured cells were centrifuged and dissociated into a single-cell suspension by use of a Pasteur pipette with a flame-polished tip. These single cells were then re-suspended into at a concentration of 50,000 cells/mL for passage or experiments.
(§2) For neuronal differentiation, cells were dissociated into a single-cell suspension by use of a Pasteur pipette and re-suspended into a concentration of 50,000 cells/mL in DMEM/F12 without serum, neurotrophic factors or growth factors. Then, the cells were cultured on poly-L-lysine-coated dishes or cover glasses, and the synthesized peptides at concentrations from 1 to 5 μM were added to the culture medium and delivered into the cells. Three days or more later, the cells were used for morphological, immunocytochemical, immunohistochemical, electrophysiological and immunoprecipitation studies, as well as for Western blot analysis.
Neurite outgrowth with length exceeding the diameter of the neuronal soma is often assessed as a morphological index of neuronal differentiation. After a single-cell suspension was made by pipetting, the cells were cultured in DMEN/F12 medium alone at 37 °C in a 5% CO2 incubator. Thereafter, neurite outgrowth was evaluated with the following 4 levels: +++, for above 50% of the cells showing neurite outgrowth; ++, for 20–50% with neurite outgrowth; +, for 5–19% having neurite outgrowth; and −, for below 5% of the cells with neurite outgrowth.

[2] = test system: JAK2; assay: Western blotting of JAK2 before and after peptide treatment; format: cell-based, rat; settings: Western blot, Figure 5B, p < 0.01
[3] = test system: rat brain; assay: Immunohistochemistry (NeuN) of transplanted peptide-treated cells in rat brain; format: in vivo, rat (Wistar); settings: 1 × 10^5 peptide-treated cells transplanted into rat brain, 6 weeks; mean ± SEM; vs VHL(157–171): p < 0.01 for VHL(157–168), p < 0.005 for TAT
Method: To evaluate neuronal differentiation of transplanted cells in rat brains, immunohistochemical study was performed as described previously. Before grafting, cells were preincubated with red fluorescence PKH26PCL (Sigma, St. Louis, MO, USA). […] Rats were anesthetized with isoflurane before surgery, and 1 × 10^5 cells were transplanted into rat brain. The rats were perfused with periodate-lysine-paraformaldehyde solution 6 weeks after the transplantation. Their brains were subsequently dissected and postfixed in the same medium for 2 h, cryopreserved in 30% sucrose for 12 h, and then embedded in Tissue Tek OCT compound (Sakura, Tokyo, Japan). Cryostat coronal sections of 14-μm thickness were prepared for immunohistochemistry. For immunostaining, sections were incubated with primary antibody, anti-NeuN antibody, and then incubated in secondary antibody, FITC-conjugated anti-rabbit IgG. Counterstaining was done with DAPI. In immohistochemistry, observations were made with a confocal immunofluorescence microscope (FV300, Olympus, Tokyo, Japan).
Wistar rats (Clea, Tokyo, Japan) were used in all experiments and housed in a temperature controlled room on a 12-h day/night cycle with free access to food and water. All animal experimental procedures were approved by the Institutional Animal Use Committee of Yokohama City University (ID 153, 1 April 2015) and were in accordance with National Institutes of Health guidelines for care and use of laboratory animals.

[4] = test system: skin-derived precursors (SKPs); assay: Western blot analysis of neuronal markers in NDD peptide-treated cells; format: cell-based, rat (neonate Wistar); settings: Figure 6A
Method: as §1, §2
Cultured cells were washed 3 times in cold PBS and then scraped into ice-cold PBS. After incubation on ice for 10 min, the cells were lysed with lysis buffer and centrifuged, after which the supernatants were collected. Each sample was separated by SDS-PAGE under reducing conditions and transferred electrophoretically to nitrocellulose filters. Non-specific binding of antibody was blocked by incubation with 5% donkey serum for 1 h. Western blots were probed with anti-MAP2 antibody, anti-NFH antibody, anti-ChAT antibody, anti-GAD antibody, anti-rhodopsin antibody, anti-TH antibody, and anti-elongin C antibody (Santa Cruz, San Diego, CA, USA) followed by horseradish peroxidase-conjugated secondary antibodies. Protein bands were detected by using a chemical luminescence detection system (ECL Plus Western Blotting Reagent Pack, Amersham, Hemel Hempstead, UK). Images were analyzed with LAS-1000 (Fujifilm, Tokyo, Japan), and the density of the bands was determined by using Image Gauge software (Fujifilm).

[5] = test system: STAT3; assay: Western blotting of STAT3 before and after peptide treatment; format: cell-based, rat; settings: Western blot, Figure 5B, p < 0.01
[6] = test system: skin-derived precursors (SKPs); assay: Whole-cell patch-clamp electrophysiology; format: cell-based, rat (neonate Wistar); settings: five days after peptide addition at 3 μM, holding potential −80 mV, steps of 20 mV from −100 to 100 mV, VHL(157–168) vs VHL(157–171) p < 0.01
Method: as §1, §2
To record fast sodium and delayed rectifier potassium currents, we prepared extracellular and intracellular solutions as described previously. […] For recordings and data analysis we used CEZ-2300 (Nihon Kohden, Tokyo, Japan) and pCLAMP 6.0 software (Axon Instruments, Burlingame, CA, USA). Linear components of leak and capacitive currents were reduced by analogue circuitry and then canceled by the P/N method. Signals were sampled every 20 μs, and currents were filtered at 5 kHz. Data were additionally processed with Origin 5.0 (Microcal, Northhampton, MA, USA).

## YARAAARQARATLKERCLQVVRSLVK [VHL(157–171), NDD in pVHL: BC-box motif plus five amino acids, conjugated with PTD]
[1]; BC-box motif plus five C-terminal amino acids peptides, delivered with TAT PTD, 1 to 5 μM
  Neurite Outgrowth Activity: +++ (above 50% of the cells showing neurite outgrowth)
[1]; Figure 2A, rates of cells having neurites, peptides at 1 to 5 μM, VHL157–168 vs VHL(157–171) p < 0.005
  Neurite Outgrowth Activity: showed neurite outgrowth activity to the same extent as VHL(155–171); also recorded: greatest of rate of cells having neurites
[2]
  JAK2 degradation: JAK2 and STAT3 were indeed degraded
[3]
  Positive rates of NeuN: 42.5 ± 4.5%
[4]; choline acetyltransferase
  Expression of ChAT: high
[4]; tyrosine hydroxylase
  Expression of TH: moderate
[5]
  STAT3 degradation: JAK2 and STAT3 were indeed degraded
[6]
  Voltage-gated outward K+ and inward Na+ currents: both large outward potassium currents and fast inward Na^+ currents
